Test results as given in patent publication US20070299087A1, “New Compounds 319” (AstraZeneca AB, priority 2006, published 2007).
Counter-ions that a name gives are not always drawn.

Target: T1, human β-Secretase (sBACE-Fc) (Homo sapiens, UniProt P56817)
T1 construct: The soluble part of the human β-Secretase (AA 1-AA 460) was cloned; Fc domain of IgG1 (C); made in house
Assay: TR-FRET assay (β-secretase enzyme, substrate (Europium)[…](Qsy7))
Type: biochemical
Protocol: The enzyme used in the IGEN Cleavage-, Fluorescent-, TR-FRET- and BiaCore assays is described as follows:
The soluble part of the human β-Secretase (AA 1-AA 460) was cloned into the ASP2-Fc10-1-IRES-GFP-neoK mammalian expression vector. The gene was fused to the Fc domain of IgG1 (affinity tag) and stably cloned into HEK 293 cells. Purified sBACE-Fc is stored in Tris buffer, pH 9.2 and has a purity of 95%.
Enzyme was diluted to 6 μg/mL and the substrate (Europium)[…](Qsy7) to 200 nM in reaction buffer (NaAcetate, chaps, triton x-100, EDTA pH 4.5). Compounds were diluted to the desired concentration in dimethyl sulfoxide (final dimethyl sulfoxide concentration in assay is 5%). The assay was done in a Costar 384 well round bottom, low volume, non-binding surface plate (Corning #3676). Enzyme (9 μL) and 1 μL of compound in dimethyl sulfoxide was added to the plate, mixed and pre-incubated for 10 min. Substrate (10 μL) was added and the reaction proceeded in the dark for 15 min at RT. The reaction was stopped with the addition of 7 μL NaAcetate, pH 9. The fluorescence of the product was measured on a Victor II plate reader with an excitation wavelength of 340 nm and an emission wavelength of 615 nm. […] The dimethyl sulfoxide control defined the 100% activity level and 0% activity was defined by exclusion of the enzyme (using reaction buffer instead).

T1 sequence (P56817 22-460): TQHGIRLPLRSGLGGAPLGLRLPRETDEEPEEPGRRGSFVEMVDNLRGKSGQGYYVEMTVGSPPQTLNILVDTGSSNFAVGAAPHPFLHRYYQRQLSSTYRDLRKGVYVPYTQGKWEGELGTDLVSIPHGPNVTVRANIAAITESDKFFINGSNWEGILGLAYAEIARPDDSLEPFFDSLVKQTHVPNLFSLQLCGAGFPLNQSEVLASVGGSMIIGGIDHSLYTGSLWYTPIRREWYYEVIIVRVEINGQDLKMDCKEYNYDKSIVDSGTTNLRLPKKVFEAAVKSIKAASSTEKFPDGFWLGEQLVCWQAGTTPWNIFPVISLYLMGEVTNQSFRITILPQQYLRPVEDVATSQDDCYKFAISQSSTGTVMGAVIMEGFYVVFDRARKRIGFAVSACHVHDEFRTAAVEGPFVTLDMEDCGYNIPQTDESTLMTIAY

Row | SMILES | IC50
1 | COc1cncc(-c2cccc(C3(c4ccncc4)N=C(N)N4CCCN=C43)c2)c1 (stereo not shown) [Example 15, 8-[3-(5-Methoxypyridin-3-yl)phenyl]-8-pyridin-4-yl-2,3,4,8-tetrahydroimidazo[1,5-a]pyrimidin-6-amine 0.25 acetate] | 117 nM
2 | COc1ccc(F)c(-c2cccc(C3(c4ccncc4)N=C(N)N4CCCN=C43)c2)c1 (stereo not shown) [Example 19, 8-(2′-Fluoro-5′-methoxybiphenyl-3-yl)-8-pyridin-4-yl-2,3,4,8-tetrahydroimidazo[1,5-a]pyrimidin-6-amine 0.25 acetate] | 74 nM
3 | N#Cc1ccc(F)c(-c2cccc(C3(c4ccncc4)N=C(N)N4CCCN=C43)c2)c1 (stereo not shown) [Example 20, 3′-(6-amino-8-pyridin-4-yl-2,3,4,8-tetrahydroimidazo[1,5-a]pyrimidin-8-yl)-6-fluorobiphenyl-3-carbonitrile 0.25 acetate] | 396 nM
4 | N#Cc1cc(-c2cccc(C3(c4ccncc4)N=C(N)N4CCCN=C43)c2)ccc1F (stereo not shown) [Example 22, 3′-(6-amino-8-pyridin-4-yl-2,3,4,8-tetrahydroimidazo[1,5-a]pyrimidin-8-yl)-4-fluorobiphenyl-3-carbonitrile 0.25 acetate] | 418 nM
5 | NC1=NC(c2ccncc2)(c2cccc(-c3cccc(Cl)c3F)c2)C2=NCCCN12 (stereo not shown) [Example 23, 8-(3′-Chloro-2′-fluorobiphenyl-3-yl)-8-pyridin-4-yl-2,3,4,8-tetrahydroimidazo[1,5-a]pyrimidin-6-amine 0.25 acetate] | 99 nM
6 | NC1=NC(c2ccncc2)(c2cccc(-c3cc(Cl)cnc3F)c2)C2=NCCCN12 (stereo not shown) [Example 29, 8-[3-(5-Chloro-2-fluoropyridin-3-yl)phenyl]-8-pyridin-4-yl-2,3,4,8-tetrahydroimidazo[1,5-a]pyrimidin-6-amine 0.25 acetate] | 87 nM
7 | NC1=NC(c2ccncc2)(c2cccc(-c3cc(Cl)ccc3F)c2)C2=NCCCN12 (stereo not shown) [Example 31, 8-(5′-Chloro-2′-fluorobiphenyl-3-yl)-8-pyridin-4-yl-2,3,4,8-tetrahydroimidazo[1,5-a]pyrimidin-6-amine 0.25 acetate] | 79 nM
8 | COc1cc(OS(C)(=O)=O)cc(-c2cccc(C3(c4ccncc4)N=C(N)N4CCCN=C43)c2)c1 (stereo not shown) [Example 35, 3′-(6-Amino-8-pyridin-4-yl-2,3,4,8-tetrahydroimidazo[1,5-a]pyrimidin-8-yl)-5-methoxybiphenyl-3-yl methanesulfonate 0.25 acetate] | 57 nM
9 | NC1=NC(c2ccncc2)(c2cccc(-c3cc(Cl)ccc3Cl)c2)C2=NCCCN12 (stereo not shown) [Example 36, 8-(2′,5′-Dichlorobiphenyl-3-yl)-8-pyridin-4-yl-2,3,4,8-tetrahydroimidazo[1,5-a]pyrimidin-6-amine 0.25 acetate] | 267 nM
10 | NC1=NC(c2ccncc2)(c2cccc(-c3ccc(F)c(Cl)c3)c2)C2=NCCCN12 (stereo not shown) [Example 37, 8-(3′-Chloro-4′-fluorobiphenyl-3-yl)-8-pyridin-4-yl-2,3,4,8-tetrahydroimidazo[1,5-a]pyrimidin-6-amine 0.25 acetate] | 99 nM
11 | NC1=NC(c2ccoc2)(c2cccc(-c3cc(Cl)cc(Cl)c3)c2)C2=NCCCN12 (stereo not shown) [Example 43, 8-(3′,5′-Dichlorobiphenyl-3-yl)-8-(3-furyl)-2,3,4,8-tetrahydroimidazo[1,5-a]pyrimidin-6-amine acetate] | 152 nM
12 | NC1=NC(c2ccoc2)(c2cccc(-c3cccnc3F)c2)C2=NCCCN12 (stereo not shown) [Example 44, 8-[3-(2-Fluoropyridin-3-yl)phenyl]-8-(3-furyl)-2,3,48-tetrahydroimidazo[1,5-a]pyrimidin-6-amine acetate] | 656 nM
13 | NC1=NC(c2cccc(-c3cc(Cl)cc(Cl)c3)c2)(c2ccco2)C2=NCCCN12 (stereo not shown) [Example 50, 8-(3′,5′-Dichlorobiphenyl-3-yl)-8-(2-furyl)-2,3,4,8-tetrahydroimidazo[1,5-a]pyrimidin-6-amine acetate] | 74 nM
14 | Cc1nc(C2(c3cccc(-c4cc(Cl)cc(Cl)c4)c3)N=C(N)N3CCCN=C32)cs1 (stereo not shown) [Example 57, 8-(3′,5′-Dichlorobiphenyl-3-yl)-8-(2-methyl-1,3-thiazol-4-yl)-2,3,4,8-tetrahydroimidazo[1,5-a]pyrimidin-6-amine acetate] | 3790 nM
15 | NC1=NC(c2ccsc2)(c2cccc(-c3cc(Cl)cc(Cl)c3)c2)C2=NCCCN12 (stereo not shown) [Example 63, 8-(3′,5′-Dichlorobiphenyl-3-yl)-8-(3-thienyl)-2,3,4,8-tetrahydroimidazo[1,5-a]pyrimidin-6-amine acetate] | 68 nM
16 | NC1=NC(c2ccsc2)(c2cccc(-c3cccnc3F)c2)C2=NCCCN12 (stereo not shown) [Example 64, 8-[3-(2-Fluoropyridin-3-yl)phenyl]-8-(3-thienyl)-2,3,4,8-tetrahydroimidazo[1,5-a]pyrimidin-6-amine acetate] | 247 nM

Now from value to compound:

Row | IC50 | SMILES
17 | 353 nM | N#Cc1cccc(-c2cccc(C3(c4ccncc4)N=C(N)N4CCCN=C43)c2)c1 (stereo not shown) [Example 13, 3′-(6-Amino-8-pyridin-4-yl-2,3,4,8-tetrahydroimidazo[1,5-a]pyrimidin-8-yl)-biphenyl-3-carbonitrile hydrochloride]
18 | 72 nM | COc1cccc(-c2cccc(C3(c4ccncc4)N=C(N)N4CCCN=C43)c2)c1 (stereo not shown) [Example 14, 8-(3′-Methoxybiphenyl-3-yl)-8-pyridin-4-yl-2,3,4,8-tetrahydroimidazo[1,5-a]pyrimidin-6-amine 0.25 acetate]
19 | 53 nM | NC1=NC(c2ccncc2)(c2cccc(-c3cccc(Cl)c3)c2)C2=NCCCN12 (stereo not shown) [Example 16, 8-(3′-Chlorobiphenyl-3-yl)-8-pyridin-4-yl-2,3,4,8-tetrahydroimidazo[1,5-a]pyrimidin-6-amine 0.25 acetate]
20 | 150 nM | NC1=NC(c2ccncc2)(c2cccc(-c3cccnc3F)c2)C2=NCCCN12 (stereo not shown) [Example 17, 8-[3-(2-Fluoropyridin-3-yl)phenyl]-8-pyridin-4-yl-2,3,4,8-tetrahydroimidazo[1,5-a]pyrimidin-6-amine 0.25 acetate]
21 | 390 nM | NC1=NC(c2ccncc2)(c2cccc(-c3cccc(C(F)(F)F)c3)c2)C2=NCCCN12 (stereo not shown) [Example 24, 8-Pyridin-4-yl-8-[3′-(trifluoromethyl)biphenyl-3-yl]-2,3,4,8-tetrahydroimidazo[1,5-a]pyrimidin-6-amine 0.25 acetate]
22 | 5080 nM | CS(=O)(=O)c1cccc(-c2cccc(C3(c4ccncc4)N=C(N)N4CCCN=C43)c2)c1 (stereo not shown) [Example 25, 8-[3′-(Methylsulfonyl)biphenyl-3-yl]-8-pyridin-4-yl-2,3,4,8-tetrahydroimidazo[1,5-a]pyrimidin-6-amine 0.25 acetate]
23 | 25 nM | NC1=NC(c2ccncc2)(c2cccc(-c3cc(Cl)cc(Cl)c3)c2)C2=NCCCN12 (stereo not shown) [Example 26, 8-(3′,5′-Dichlorobiphenyl-3-yl)-8-pyridin-4-yl)-2,3,4,8-tetrahydroimidazo[1,5-a]pyrimidin-6-amine 0.25 acetate]
24 | 66 nM | COc1cc(Cl)cc(-c2cccc(C3(c4ccncc4)N=C(N)N4CCCN=C43)c2)c1 (stereo not shown) [Example 27, 8-(3′-Chloro-5′-methoxybiphenyl-3-yl)-8-pyridin-4-yl-2,3,4,8-tetrahydroimidazo[1,5-a]pyrimidin-6-amine 0.25 acetate]
25 | 5070 nM | NC1=NC(c2ccncc2)(c2cccc(-c3cccc(Cl)c3Cl)c2)C2=NCCCN12 (stereo not shown) [Example 28, 8-(2′,3′-Dichlorobiphenyl-3-yl)-8-pyridin-4-yl-2,3,4,8-tetrahydroimidazo[1,5-a]pyrimidin-6-amine 0.25 acetate]
26 | 328 nM | CCOc1cccc(-c2cccc(C3(c4ccncc4)N=C(N)N4CCCN=C43)c2)c1 (stereo not shown) [Example 30, 8-(3′-Ethoxybiphenyl-3-yl)-8-pyridin-4-yl-2,3,4,8-tetrahydroimidazo[1,5-a]pyrimidin-6-amine 0.25 acetate]
27 | 515 nM | COc1cc(-c2cccc(C3(c4ccncc4)N=C(N)N4CCCN=C43)c2)ccc1F (stereo not shown) [Example 32, 8-(4′-Fluoro-3′-methoxybiphenyl-3-yl)-8-pyridin-4-yl-2,3,4,8-tetrahydroimidazo[1,5-a]pyrimidin-6-amine 0.25 acetate]
28 | 186 nM | NC1=NC(c2ccncc2)(c2cccc(-c3cncc(F)c3)c2)C2=NCCCN12 (stereo not shown) [Example 34, 8-[3-(5-Fluoropyridin-3-yl)phenyl]-8-pyridin-4-yl-2,3,4,8-tetrahydroimidazo[1,5-a]pyrimidin-6-amine 0.25 acetate]
29 | 472 nM | COc1cccc(-c2cccc(C3(c4ccco4)N=C(N)N4CCCN=C43)c2)c1 (stereo not shown) [Example 51, 8-(2-Furyl)-8-(3′-methoxybiphenyl-3-yl)-2,3,4,8-tetrahydroimidazo[1,5-a]pyrimidin-6-amine acetate]
30 | 59 nM | NC1=NC(c2ccncc2)(c2cccc(-c3cccnc3F)c2)C2=NCC(F)(F)CN12 (stereo not shown) [Example 68, 3,3-Difluoro-8-[3-(2-fluoropyridin-3-yl)phenyl]-8-pyridin-4-yl-2,3,4,8-tetrahydroimidazo[1,5-a]pyrimidin-6-amine 0.75 acetate]
31 | 120 nM | NC1=NC(c2ccncc2)(c2cccc(-c3cncc(F)c3)c2)C2=NCC(F)(F)CN12 (stereo not shown) [Example 71, 3,3-Difluoro-8-[3-(5-fluoropyridin-3-yl)phenyl]-8-pyridin-4-yl-2,3,4,8-tetrahydroimidazo[1,5-a]pyrimidin-6-amine acetate]
